test system: E. coli ATCC25922; assay: Antibacterial activity in combination with minocycline (growth inhibition); type: cell-based; conditions: Escherichia coli, ATCC25922, compound at 25 μM; minocycline 0.25 μg/mL; OD625 23 h minus 1 h; read-out: residual growth of E. coli ATCC25922 (% of uninhibited control) with minocycline
Outline: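 Test compound combined with fixed subinhibitory partner antibiotic: linezolid 128 μg/mL for either strain, minocycline 0.25 μg/mL (E. coli) or 8 μg/mL (P. aeruginosa), in caMHB shaken at 37 °C. Residual growth as % of inhibitor-free control, from OD625 at 23 h minus 1 h.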

SMILES	activity at 25 µM [%]
C=CCOc1ccc(OCc2ccc(Cl)cc2Br)cc1CNCC1CCNC1 (centres unmarked) [Example 412]	≤ 10
C=CCOc1ccc(OCc2ccc(Cl)cc2Br)cc1CNCC1CNC1 [Example 413]	≤ 10
CC(C)COc1ccc(OCc2ccc(Cl)cc2Br)cc1CNCC1CCNC1 (centres unmarked) [Example 416]	≤ 10
C=CCOc1ccc(/C=C/c2ccc(Cl)cc2Br)cc1CNCC1CCNC1 (centres unmarked) [Example 419]	≤ 10
C=CCOc1ccc(/C=C/c2ccc(Cl)cc2Br)cc1CNCC1CNC1 [Example 421]	≤ 10
CC(C)COc1ccc(OCc2ccc(Cl)cc2Br)cc1CNCC1CNC1 [Example 422]	≤ 10
O=c1[nH]nc(CCOc2cc(/C=C/c3ccc(Cl)cc3Br)cc(CNCC3CCNC3)c2)o1 (centres unmarked) [Example 429]	≤ 10
Cc1noc(C)c1CCOc1cc(/C=C/c2ccc(Cl)cc2Br)cc(CNCC2CCNC2)c1 (centres unmarked) [Example 430]	≤ 10
CC(C)COc1ccc(/C=C/c2ccc(Cl)cc2Br)cc1CNCC1CCNC1 (centres unmarked) [Example 431]	≤ 10
Cc1n[nH]c(C)c1CCOc1cc(/C=C/c2ccc(Cl)cc2Br)cc(CNCC2CCNC2)c1 (centres unmarked) [Example 433]	≤ 10
C=CCOc1cc(/C=C/c2ccc(Cl)cc2Br)cc(CNCC(=O)NCC2CNC2)c1 [Example 443]	≤ 10
C=CCOc1cc(/C=C/c2ccc(Cl)cc2Br)cc(C[N+](C)(C)CC(=O)NCC2CNC2)c1 [Example 444]	≤ 10
N#Cc1cncc(/C=C/c2cc(OCc3ccccc3)cc(CNCC3CCNC3)n2)c1 (centres unmarked) [Example 446]	≤ 10
C=CCOc1cc(/C=C/c2ccc(Cl)cc2Br)cc(CN(CC2CNC2)CC2CNC2)c1 [Example 448]	≤ 10
C=CCOc1cc(/C=C/c2ccc(Cl)cc2Br)cc(CNCCNC(=O)C2CNC2)c1 [Example 450]	≤ 10
C=CCOc1cc(/C=C/c2ccc(Cl)cc2Br)cc(C(=O)NCCNCC2CNC2)c1 [Example 451]	≤ 10
C=CCOc1cc(/C=C/c2ccc(Cl)cc2Br)cc(CNC(=O)C[N+](C)(C)CC2CNC2)c1 [Example 452]	≤ 10
C=CCOc1cc(/C=C/c2ccc(Cl)cc2Br)cc(CNCCNCC2CNC2)c1 [Example 453]	≤ 10
C=CCOc1cc(/C=C/c2ccc(Cl)cc2Br)cc(CNCCN(CC2CNC2)CC2CNC2)c1 [Example 455]	≤ 10
C=CCOc1cc(/C=C/c2ccc(Cl)cc2Br)cc(C(=O)N(CC2CNC2)CC2CNC2)c1 [Example 456]	≤ 10
C=CCOc1cc(/C=C/c2cncc(C(=O)OC)c2)cc(CNCC2CCNC2)c1 (centres unmarked) [Example 457]	≤ 10
CC(C)COc1cc(/C=C/c2cccnc2)cc(C[N+](C)(C)CC2CCNC2)c1 (centres unmarked) [Example 459]	≤ 10
CC(C)COc1cc(/C=C/c2cncc(C#N)c2)cc(C[N+](C)(C)CC2CCNC2)c1 (centres unmarked) [Example 460]	≤ 10
Clc1ccc(COc2ccc(OCCc3c[nH]cn3)c(CNCC3CCNC3)c2)c(Br)c1 (centres unmarked) [Example 463]	≤ 10
Clc1ccc(/C=C/c2ccc(OCCc3c[nH]cn3)c(CNCC3CCNC3)c2)c(Br)c1 (centres unmarked) [Example 464]	≤ 10
Clc1ccc(COc2ccc(OCCc3c[nH]cn3)c(CNCC3CNC3)c2)c(Br)c1 [Example 465]	≤ 10
Clc1ccc(/C=C/c2ccc(OCCc3c[nH]cn3)c(CNCC3CNC3)c2)c(Br)c1 [Example 471]	≤ 10

same assay, conditions: Escherichia coli, ATCC25922, compound at 50 μM; minocycline 0.25 μg/mL; OD625 23 h minus 1 h; read-out: residual growth of E. coli ATCC25922 (% of uninhibited control) with minocycline

SMILES	activity at 50 µM [%]
C=CCOc1cc(CNCC2CNC2)cc(OCCc2cccnc2)c1 [Example 414]	≤ 50
C=CCOc1cc(CNCC2CCNC2)cc(OCc2cccnc2)c1 (centres unmarked) [Example 417]	≤ 50
C=CCOc1cc(CNCC2CCNC2)cc(OCCc2cccnc2)c1 (centres unmarked) [Example 418]	≤ 50
C=CCOc1cc(CNCC2CNC2)cc(OCCc2ccncc2)c1 [Example 423]	≤ 50
C(=C\c1cc(CNCC2CNC2)cc(OCCc2ccncc2)c1)/c1cccnc1 [Example 438]	≤ 50

— US10464896B2, “Efflux-pump inhibitors and therapeutic uses thereof” (Basilea Pharmaceutica International AG, priority 2015, dated 2019)
